Values joined by “and” are separate entries in the source; they are usually repeats but may differ in a detail not shown here. Identical values can stand only once. Toxic doses and inconclusive results are not listed. Peptide text beside a SMILES is read from it. * marks the point of attachment. OtBu = CC(C)(C)O*
Test system: P388 leukemia ip, CD2F1 mice, survival T/C
Assay: NCI In Vivo Anticancer Drug Screen. Data for tumor model P388 Leukemia (intraperitoneal) in CD2F1 (CDF1) mice
Details: endpoint: median survival time, higher = longer survival
Outline: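 Mice carrying the transplanted tumor received test compound or vehicle. Survival was recorded in each group, and the value is the treated-group measurement divided by that of the vehicle-treated control group.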

[1] = dose: 50.0 mg/kg/injection, schedule: Q01DX005 (ip), vehicle: Klucel (hydroxypropylcellulose) (HPC)
[2] = dose: 100.0 mg/kg/injection, schedule: Q01DX005 (ip), vehicle: Klucel (hydroxypropylcellulose) (HPC)
[3] = dose: 200.0 mg/kg/injection, schedule: Q01DX005 (ip), vehicle: Klucel (hydroxypropylcellulose) (HPC)
[4] = dose: 60.0 mg/kg/injection, schedule: Q01DX005 (ip), vehicle: Klucel (hydroxypropylcellulose) (HPC)
[5] = dose: 120.0 mg/kg/injection, schedule: Q01DX005 (ip), vehicle: Klucel (hydroxypropylcellulose) (HPC)
[6] = dose: 240.0 mg/kg/injection, schedule: Q01DX005 (ip), vehicle: Klucel (hydroxypropylcellulose) (HPC)
[7] = dose: 50.0 mg/kg/injection, schedule: Q01DX009 (ip), vehicle: saline with Tween-80
[8] = dose: 100.0 mg/kg/injection, schedule: Q01DX009 (ip), vehicle: saline with Tween-80
[9] = dose: 200.0 mg/kg/injection, schedule: Q01DX009 (ip), vehicle: saline with Tween-80
[10] = dose: 60.0 mg/kg/injection, schedule: Q01DX005 (ip), vehicle: saline with Tween-80
[11] = dose: 120.0 mg/kg/injection, schedule: Q01DX005 (ip), vehicle: saline with Tween-80
[12] = dose: 240.0 mg/kg/injection, schedule: Q01DX005 (ip), vehicle: saline with Tween-80
[13] = dose: 30.0 mg/kg/injection, schedule: Q01DX005 (ip), vehicle: Klucel (hydroxypropylcellulose) (HPC)
[14] = dose: 100.0 mg/kg/injection, schedule: Q01DX009 (ip), vehicle: Klucel (hydroxypropylcellulose) (HPC)
[15] = dose: 200.0 mg/kg/injection, schedule: Q01DX009 (ip), vehicle: Klucel (hydroxypropylcellulose) (HPC)
[16] = dose: 100.0 mg/kg/injection, schedule: Q04DX003 (ip), vehicle: saline
[17] = dose: 200.0 mg/kg/injection, schedule: Q04DX003 (ip), vehicle: saline
[18] = dose: 400.0 mg/kg/injection, schedule: Q04DX003 (ip), vehicle: saline

## CC1CCN(CC#CCN2C(=O)CCC2=O)CC1
dose: 25.0 mg/kg/injection, schedule: Q01DX005 (ip), vehicle: Klucel (hydroxypropylcellulose) (HPC)
  T/C: 104 % of control
[1]
  T/C: 103 % of control
[2]
  T/C: 107 % of control
[3]
  T/C: 107 % of control

## CN1C(=O)c2ccccc2C2(C1=O)C(C#N)=C(N)Oc1c2c2ccccc2c(=O)n1C (configuration not stated)
[4]
  T/C: 99 % of control
[5]
  T/C: 95 % of control
[6]
  T/C: 88 % of control

## COc1ccc(CC2C(=O)NC(C)C(=O)N(C)C3Cc4ccc(cc4)Oc4cc(ccc4OC)CC(C(=O)NC(C)C(=O)NC(C)C(=O)N2C)N(C)C3=O)cc1 (configuration not stated)
dose: 0.5 mg/kg/injection, schedule: Q01DX009 (ip), vehicle: none
  T/C: 161 % of control
dose: 1.0 mg/kg/injection, schedule: Q01DX009 (ip), vehicle: none
  T/C: 152 % of control
dose: 2.0 mg/kg/injection, schedule: Q01DX009 (ip), vehicle: none
  T/C: 190 % of control

## Cc1nc2c([N+](=O)[O-])c(N3CCN(c4ccccc4)CC3)c([N+](=O)[O-])cc2[nH]1
[7]
  T/C: 100 % of control
[8]
  T/C: 100 % of control
[9]
  T/C: 99 % of control

## CC(=O)C1(C(C)=O)OC2c3ccccc3C=CN2C=C1C=O (configuration not stated)
[10]
  T/C: 110 % of control
[11]
  T/C: 106 % of control
[12]
  T/C: 106 % of control

## CCCCOC(=O)CC(O)C(=O)OCCCC (configuration not stated)
[7]
  T/C: 109 % of control
[8]
  T/C: 119 % of control
[9]
  T/C: 114 % of control

## FC1(F)SC(F)(F)S1
[1]
  T/C: 108 % of control
[2]
  T/C: 108 % of control
[3]
  T/C: 108 % of control

## COc1ccc(/C=C/C(C)=O)c(OC)c1
dose: 100.0 mg/kg/injection, schedule: Q01DX001 (ip), vehicle: Klucel (hydroxypropylcellulose) (HPC)
  T/C: 108 % of control
dose: 200.0 mg/kg/injection, schedule: Q01DX001 (ip), vehicle: Klucel (hydroxypropylcellulose) (HPC)
  T/C: 101 % of control

## CCOC(=O)C1=C(C(=O)c2cccc3ccccc23)C(c2cccc([N+](=O)[O-])c2)C(C(=O)c2cccc3ccccc23)=C(C(=O)OCC)N1
dose: 15.0 mg/kg/injection, schedule: Q01DX005 (ip), vehicle: Klucel (hydroxypropylcellulose) (HPC)
  T/C: 97 % of control
[13]
  T/C: 97 % of control
[4]
  T/C: 99 % of control

## C[C@@H]1C[C@@H](O)[C@]2(O)O[C@@H]3C[C@@]4(C=O)[C@@H](CC=C5[C@@H]4CC[C@]4(C)C(C6=CC(=O)OC6)CC[C@]54O)C[C@H]3O[C@@H]2O1 (some centres not stated)
dose: 1.75 mg/kg/injection, schedule: Q01DX005 (ip), vehicle: saline with Tween-80
  T/C: 94 % of control
dose: 3.5 mg/kg/injection, schedule: Q01DX005 (ip), vehicle: saline with Tween-80
  T/C: 100 % of control
dose: 7.0 mg/kg/injection, schedule: Q01DX005 (ip), vehicle: saline with Tween-80
  T/C: 98 % of control

## CC(C)C1=CC2=C[C@H](O)[C@H]3C(C)(C)CCC[C@]3(C)C2=C(O)C1=O
dose: 1.25 mg/kg/injection, schedule: Q01DX009 (ip), vehicle: saline with Tween-80
  T/C: 109 % of control and 91 % of control
dose: 1.25 mg/kg/injection, schedule: Q01DX009 (ip), vehicle: suspension in saline
  T/C: 103 % of control
dose: 1.75 mg/kg/injection, schedule: Q01DX009 (ip), vehicle: saline with Tween-80
  T/C: 108 % of control
dose: 2.5 mg/kg/injection, schedule: Q01DX009 (ip), vehicle: saline with Tween-80
  T/C: 100 % of control and 111 % of control and 123 % of control
dose: 2.5 mg/kg/injection, schedule: Q01DX009 (ip), vehicle: suspension in saline
  T/C: 109 % of control
dose: 5.0 mg/kg/injection, schedule: Q01DX009 (ip), vehicle: saline with Tween-80
  T/C: 104 % of control and 108 % of control and 111 % of control
dose: 5.0 mg/kg/injection, schedule: Q01DX009 (ip), vehicle: suspension in saline
  T/C: 100 % of control
dose: 10.0 mg/kg/injection, schedule: Q01DX009 (ip), vehicle: saline with Tween-80
  T/C: 107 % of control and 109 % of control and 113 % of control
dose: 10.0 mg/kg/injection, schedule: Q01DX009 (ip), vehicle: suspension in saline
  T/C: 113 % of control
dose: 20.0 mg/kg/injection, schedule: Q01DX009 (ip), vehicle: suspension in saline
  T/C: 109 % of control

## COc1ccc2c(c1)CCC1(C)CC(=O)C=C21 (configuration not stated)
dose: 6.25 mg/kg/injection, schedule: Q01DX009 (ip), vehicle: Klucel (hydroxypropylcellulose) (HPC)
  T/C: 115 % of control
dose: 12.5 mg/kg/injection, schedule: Q01DX009 (ip), vehicle: Klucel (hydroxypropylcellulose) (HPC)
  T/C: 114 % of control
dose: 25.0 mg/kg/injection, schedule: Q01DX009 (ip), vehicle: Klucel (hydroxypropylcellulose) (HPC)
  T/C: 108 % of control

## O=c1c2nccnc2nc2n1CCCS2
[14]
  T/C: 99 % of control
[15]
  T/C: 100 % of control

## CC(/C=C/c1cccc(C)c1)=N\NC(N)=S
dose: 3.75 mg/kg/injection, schedule: Q01DX005 (ip), vehicle: Klucel (hydroxypropylcellulose) (HPC)
  T/C: 106 % of control
dose: 7.5 mg/kg/injection, schedule: Q01DX005 (ip), vehicle: Klucel (hydroxypropylcellulose) (HPC)
  T/C: 105 % of control
[13]
  T/C: 122 % of control

## O=NN(CCCl)C(=O)Nc1cc(=O)[nH]c(SCc2ccccc2)n1
dose: 10.06 mg/kg/injection, schedule: Q04DX002 (ip), vehicle: Klucel (hydroxypropylcellulose) (HPC)
  T/C: 151 % of control
dose: 40.25 mg/kg/injection, schedule: Q04DX002 (ip), vehicle: Klucel (hydroxypropylcellulose) (HPC)
  T/C: 158 % of control
dose: 80.5 mg/kg/injection, schedule: Q04DX002 (ip), vehicle: Klucel (hydroxypropylcellulose) (HPC)
  T/C: 178 % of control
dose: 161.0 mg/kg/injection, schedule: Q04DX002 (ip), vehicle: Klucel (hydroxypropylcellulose) (HPC)
  T/C: 150 % of control and 158 % of control
dose: 322.0 mg/kg/injection, schedule: Q04DX002 (ip), vehicle: Klucel (hydroxypropylcellulose) (HPC)
  T/C: 101 % of control

## COc1cc(C(NC(N)=O)c2cc3c(cc2OC(C)=O)OCO3)cc(OC)c1OC (configuration not stated)
[4]
  T/C: 90 % of control
[5]
  T/C: 86 % of control

## CC(C)CC(NC(=O)C1CCCN1)C(=O)NC(CC(C)C)C(=O)OC(C)(C)C (stereo not drawn) (H-Pro-Leu-Leu-OtBu; configuration not given here)
[1]
  T/C: 102 % of control
[2]
  T/C: 99 % of control
[3]
  T/C: 96 % of control

## O=C(NO)c1ccncc1
[16]
  T/C: 100 % of control
[17]
  T/C: 109 % of control
[18]
  T/C: 109 % of control

## COC(=O)C(N)CN (configuration not stated)
dose: 43.75 mg/kg/injection, schedule: Q01DX009 (ip), vehicle: saline with Tween-80
  T/C: 97 % of control
dose: 87.5 mg/kg/injection, schedule: Q01DX009 (ip), vehicle: saline with Tween-80
  T/C: 97 % of control
dose: 175.5 mg/kg/injection, schedule: Q01DX009 (ip), vehicle: saline with Tween-80
  T/C: 97 % of control

## CC(C)CSc1nc2ccc(N=Cc3ccccc3O)cc2s1
dose: 50.0 mg/kg/injection, schedule: Q01DX009 (ip), vehicle: Klucel (hydroxypropylcellulose) (HPC)
  T/C: 94 % of control
[14]
  T/C: 92 % of control
[15]
  T/C: 89 % of control

## CCCCSc1ccc(N=[N+]([O-])c2ccc(SCCCC)nc2SCCCC)c(SCCCC)n1
[7]
  T/C: 94 % of control
[8]
  T/C: 90 % of control
[9]
  T/C: 88 % of control

## CCCCCCCCCCCCN1C(=O)[N+](C)(C)N=C1[O-]
[16]
  T/C: 113 % of control
[17]
  T/C: 105 % of control
[18]
  T/C: 105 % of control

## CN(C)C1=NC(N(C)C)=C2C=C(C(C)(C)C)C=C12
[4]
  T/C: 101 % of control
[5]
  T/C: 101 % of control

## C[Si](C)(C)CCCn1ccc(=O)[nH]c1=O
[10]
  T/C: 98 % of control
[11]
  T/C: 92 % of control
[12]
  T/C: 88 % of control

## COc1ccc(C2Oc3cc(O)c4c(=O)c5c(OC)cccc5oc4c3OC2CO)cc1O (configuration not stated)
dose: 6.25 mg/kg/injection, schedule: Q01DX009 (ip), vehicle: saline + alcohol
  T/C: 111 % of control
dose: 12.5 mg/kg/injection, schedule: Q01DX009 (ip), vehicle: saline + alcohol
  T/C: 100 % of control
dose: 25.0 mg/kg/injection, schedule: Q01DX009 (ip), vehicle: saline + alcohol
  T/C: 100 % of control

## C=CCN1C(=O)CCN(S(=O)(=O)c2ccc(-n3nc(C(=O)O)cc3C)cc2)C1=S
dose: 50.0 mg/kg/injection, schedule: Q01DX005 (ip), vehicle: saline with Tween-80
  T/C: 103 % of control
dose: 100.0 mg/kg/injection, schedule: Q01DX005 (ip), vehicle: saline with Tween-80
  T/C: 107 % of control
dose: 200.0 mg/kg/injection, schedule: Q01DX005 (ip), vehicle: saline with Tween-80
  T/C: 99 % of control

## COc1cc(O)cc2c1C(=O)C(C)O2 (configuration not stated)
[4]
  T/C: 101 % of control
[5]
  T/C: 101 % of control
[6]
  T/C: 91 % of control

Reference: PubChem BioAssay AID330 (DTP/NCI, 2004)
